Laboratory results published in ChEMBL document CHEMBL1158498, “Synthesis of 4'-ester analogs of resveratrol and their evaluation in malignant melanoma and pancreatic cell lines” (Bioorg Med Chem Lett, 2010).
Activity calls are given as the source filed them. The calls are words filed in the database; no cut-off is given here.

How the values were obtained:
PANC-1 [1] = test: Cytotoxicity against human PANC1 cells at 50 uM after 72 hrs by WST-1 assay; type: functional, cell-based
NHDF = test: Cytotoxicity against human NHDF cells at 50 uM after 72 hrs by WST-1 assay; type: cell-based
PANC-1 [2] = test: Cytotoxicity against human PANC1 cells at 50 uM after 72 hrs by WST-1 assay in presence of gemcitabine; type: functional, cell-based
DM738 = test: Cytotoxicity against human DM738 cells at 50 uM after 72 hrs by WST-1 assay; type: functional, cell-based
DM443 = test: Cytotoxicity against human DM443 cells at 50 uM after 72 hrs by WST-1 assay; type: functional, cell-based

| Structure (SMILES) | Activity (PANC-1 [1]) | Activity (NHDF) | Activity (PANC-1 [2]) | Activity (DM738) | Activity (DM443) |
| --- | --- | --- | --- | --- | --- |
| CC(=O)Oc1ccc(/C=C/c2cc(O)cc(O)c2)cc1 | Active | Non-toxic |  |  |  |
| CC(=O)Oc1cc(O)cc(/C=C/c2ccc(O)cc2)c1 |  |  | Not toxic |  |  |
| CC(=O)Oc1ccc(/C=C/c2cc(OC(C)=O)cc(OC(C)=O)c2)cc1 | Active |  | Not toxic |  |  |
| CC(=O)Oc1cc(/C=C/c2ccc(O)cc2)cc(OC(C)=O)c1 |  |  | Not toxic |  |  |
| Oc1cc(F)cc(/C=C/c2ccc(F)cc2)c1 |  |  | Not toxic | Active | Active |
| Oc1ccc(/C=C/c2cc(O)cc(O)c2)cc1 |  |  | Not toxic |  |  |
| CC(C)C(=O)Oc1ccc(/C=C/c2cc(O)cc(O)c2)cc1 |  |  | Not toxic | Active | Active |
| CCCC(=O)Oc1ccc(/C=C/c2cc(O)cc(O)c2)cc1 |  |  | Not toxic | Active | Active |
| CCCCCCCCCCCCCCCC(=O)Oc1ccc(/C=C/c2cc(O)cc(O)c2)cc1 |  |  | Not toxic |  |  |
| CCCCCC(=O)Oc1ccc(/C=C/c2cc(O)cc(O)c2)cc1 |  |  | Not toxic | Active | Active |
| O=C(CCCCC(=O)Oc1ccc(/C=C/c2cc(O)cc(O)c2)cc1)Oc1ccc(/C=C/c2cc(O)cc(O)c2)cc1 |  | Non-toxic | Not toxic |  |  |
